Data reported in the supplement of paper PMC6045584.
± gives the standard deviation of the averaged measurements.

What was measured:
[1] = compound: CCn1c(C(=O)N(C2CC2)C2CC2)cc2c3c(ncn3C)c(Nc3cc(C)n(C)n3)nc21; assay: surviving fraction relative to DMSO-only wells; higher = less growth inhibition; settings: exposure time: 5 days
Outline: (§1)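 Log-phase tumour cell lines were seeded at 250–500 cells per well in 384-well plates. After 24 hours they were exposed continuously for five days to inhibitors at 0.5, 1, 5, 10, 50, 100, 500 and 1000 nM. Viability was read by CellTiter-Glo luminescence after 10 minutes at room temperature, and surviving fraction is luminescence normalised to the median of DMSO-only wells. Each line was screened three times and kept only if replicate Pearson r >0.7 and median Z' >0.3.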

ABIRATERONE = compound: C[C@]12CC[C@H](O)CC1=CC[C@@H]1[C@@H]2CC[C@]2(C)C(c3cccnc3)=CC[C@@H]12 [ABIRATERONE]; assay: as above; settings: exposure time: 5 days
Outline: as §1

| Test System | surviving fraction ([1]; 0.5 nM) | surviving fraction ([1]; 1 nM) | surviving fraction ([1]; 5 nM) | surviving fraction ([1]; 10 nM) | surviving fraction ([1]; 50 nM) | surviving fraction ([1]; 100 nM) | surviving fraction ([1]; 500 nM) | surviving fraction ([1]; 1000 nM) | surviving fraction (ABIRATERONE; 0.5 nM) | surviving fraction (ABIRATERONE; 1 nM) | surviving fraction (ABIRATERONE; 5 nM) | surviving fraction (ABIRATERONE; 10 nM) | surviving fraction (ABIRATERONE; 50 nM) | surviving fraction (ABIRATERONE; 100 nM) | surviving fraction (ABIRATERONE; 500 nM) | surviving fraction (ABIRATERONE; 1000 nM) |
| --- | --- | --- | --- | --- | --- | --- | --- | --- | --- | --- | --- | --- | --- | --- | --- | --- |
| SUM159 BREAST | 1.04 ± 0.063 | 0.972 ± 0.041 | 0.997 ± 0.012 | 0.873 ± 0.2 | 0.95 ± 0.12 | 0.965 ± 0.12 | 0.955 ± 0.13 | 0.959 ± 0.1 | 1.11 ± 0.053 | 0.994 ± 0.16 | 0.99 ± 0.17 | 0.952 ± 0.21 | 1.11 ± 0.05 | 0.963 ± 0.24 | 1.03 ± 0.15 | 0.961 ± 0.2 |
| SYO1 SYNOVIAL | 0.939 ± 0.069 | 0.927 ± 0.055 | 0.951 ± 0.027 | 0.917 ± 0.09 | 1.01 ± 0.051 | 0.97 ± 0.011 | 0.977 ± 0.045 | 0.98 ± 0.017 | 1.01 ± 0.048 | 1.03 ± 0.02 | 1.03 ± 0.014 | 1.01 ± 0.013 | 1.031 ± 0.0036 | 1.03 ± 0.029 | 1.01 ± 0.018 | 1.01 ± 0.062 |
| T47D BREAST | 1.02 ± 0.045 | 0.994 ± 0.066 | 1 ± 0.026 | 0.955 ± 0.024 | 1.04 ± 0.02 | 1.05 ± 0.014 | 1.04 ± 0.067 | 1.04 ± 0.006 | 1.04 ± 0.048 | 1.08 ± 0.031 | 1.05 ± 0.018 | 1.08 ± 0.063 | 1.18 ± 0.068 | 1.14 ± 0.022 | 1.1 ± 0.069 | 1.13 ± 0.051 |
| U2OS BONE | 0.998 ± 0.025 | 1.03 ± 0.029 | 1.05 ± 0.023 | 1.02 ± 0.022 | 1.07 ± 0.053 | 1.077 ± 0.0072 | 1.03 ± 0.011 | 1.05 ± 0.013 | 1.04 ± 0.05 | 1.03 ± 0.029 | 1.1 ± 0.035 | 1.096 ± 0.004 | 1.19 ± 0.031 | 1.08 ± 0.022 | 1.1 ± 0.016 | 1.09 ± 0.032 |
| VCAP PROSTATE | 0.98 ± 0.059 | 1.05 ± 0.12 | 1.15 ± 0.09 | 1.03 ± 0.051 | 1.11 ± 0.11 | 1.13 ± 0.18 | 1.06 ± 0.078 | 1.06 ± 0.092 | 1.13 ± 0.024 | 1.07 ± 0.083 | 1.19 ± 0.049 | 1.12 ± 0.073 | 1.22 ± 0.1 | 1.18 ± 0.18 | 1.02 ± 0.1 | 0.967 ± 0.11 |
| VP229 BREAST | 0.983 ± 0.11 | 1.04 ± 0.14 | 1.02 ± 0.21 | 1.06 ± 0.14 | 1.15 ± 0.13 | 1.09 ± 0.12 | 1.23 ± 0.1 | 1.14 ± 0.034 | 1.03 ± 0.052 | 0.99 ± 0.032 | 0.997 ± 0.1 | 1.09 ± 0.1 | 1.03 ± 0.013 | 1.04 ± 0.03 | 1.26 ± 0.16 | 1.11 ± 0.16 |
| YAMATO SYNOVIAL | 1.22 ± 0.059 | 1.21 ± 0.076 | 1.234 ± 0.012 | 1.19 ± 0.027 | 1.4 ± 0.081 | 1.32 ± 0.15 | 1.327 ± 0.0092 | 1.14 ± 0.023 | 1.37 ± 0.033 | 1.52 ± 0.058 | 1.48 ± 0.12 | 1.45 ± 0.14 | 1.39 ± 0.14 | 1.46 ± 0.078 | 1.38 ± 0.025 | 1.22 ± 0.14 |
| ZR751 BREAST | 0.982 ± 0.19 | 0.864 ± 0.032 | 0.877 ± 0.11 | 0.99 ± 0.057 | 0.894 ± 0.095 | 0.8 ± 0.031 | 0.812 ± 0.027 | 0.772 ± 0.12 | 1.1 ± 0.11 | 1.18 ± 0.16 | 1.15 ± 0.1 | 1.19 ± 0.099 | 1.09 ± 0.19 | 1.08 ± 0.17 | 0.854 ± 0.13 | 0.731 ± 0.21 |
